The subject of one test is LXRα-64 mRNA. The test can be described thus: Regulation of LXRα-64 mRNA expression in differentiated THP-1 cells (real-time RT-PCR). The class given is cell-based, human. Conditions: THP-1 cells differentiated with 150 nM phorbol ester for 3 days; 10 μM T0901317, 10 μM GW 3965, 10 μM Ciglitazone or 1 μM 9RA; vs vehicle; FIG. 8A. Background: Real-time PCR tracks product formation cycle by cycle.

The subject of a further test is LXRα-42 mRNA. The test can be described thus: Regulation of LXRα-42 mRNA expression in differentiated THP-1 cells (real-time RT-PCR). The following applies: THP-1 cells differentiated with 150 nM phorbol ester for 3 days; 10 μM T0901317, 10 μM GW 3965, 10 μM Ciglitazone or 1 μM 9RA; vs vehicle; FIG. 8B. The class given is cell-based, human.
For test [1], the system named is pGL3-LXRα-Luc reporter (LXR response element of LXRα promoter). Briefly: LXRα promoter (LXRE) luciferase reporter gene assay in transfected HEK 293 cells. The test is classed as cell-based, human. The following applies: variant co-transfected with hRXRα and reporter, 10 μM T0901317, 24 hours, compared with co-transfected native LXRα, FIG. 9. From the text:
Human LXRα promoter (SEQ ID NO:14) was amplified by PCR using information from the published LXRα genomic structure and sequence (GenBank accession no. AC090589. A fragment spanning from -2660 to -2363 (relative to the transcription start site from exon 1) of LXRα promoter which contains the LXR response element ([NT] ID NO:20) ([…] et al. 2001, Mol. Cell. Biol. 21, 7558-7568 and Whitney et al., 2001, J. Biol. Chem. 276, 43509-43515) of LXRα was subcloned into pGL3 basic plasmid to create pGL-3-LXRα-Luc. The GenBank accession number of the LXRα “native” sequence used as a reference for the experiments and analysis disclosed herein is Genbank accession number for human LXRα is BC008819. Coding regions of human LXRα, and RXRα (GenBank accession number BC007925) were amplified by RT-PCR according to the sequences in GenBank and subcloned into pCMV/myc/nuc expression vectors (Invitrogen, Carlsbad, Calif.). The new LXRα-[…] coding region was subcloned into pCMV/myc/nuc expression vectors. HEK 293 cells were grown in Dulbecco's modified Eagle's medium (DMEM) containing 10% FBS. Transfections were performed in triplicate in 24 well plates using Lipofectamine 2000 (Invitrogen). […] The cells were harvested, analyzed, and the extracts were assayed for luciferase and β-galactosidase activity in a microplate luminometer/photometer reader (Lucy-1; Anthos, Salzburg, Austria). […]
(In general: A reporter such as luciferase makes a cellular process visible.)

Test [2] has as its system SREBP-c1 (an LXR target gene). The test can be described thus: SREBP-1C expression in transfected HEK 293 cells (real-time quantitative PCR). The test is classed as cell-based. The following applies: cotransfected with human RXRα, TO901317 and/or 9RA, 48 hours, compared to wild type LXRα with RXRα or empty vector with RXRα, FIG. 11. The method, then: (§1) In these experiments, coding regions of human LXRα, RXRα, and the LXRα variant (LXRα-64) were amplified by RT-PCR. The PCR products were subcloned into pCMV/myc/nuc expression vectors (Invitrogen, Carlsbad, Calif.) and used in the experiments described infra.
(§2) Expression experiments were conducted in HEK 293 cells that were propagated in Dulbecco's modified Eagle's medium (DMEM) containing 10% FBS. The cultured cells were transfected with either the expression vector containing a sequence encoding LXRα (wild type) or an expression vector encoding LXRα-64. All samples were co-transfected with an expression vector encoding an RXRα sequence. Transfections were performed in triplicate in 24 well plates using the Lipofectamine 2000 (Invitrogen, Carlsbad, Calif.). Each well was transfected with 200 ng of the LXRα expression vector (LXRα), the LXRα-64 expression vector (L64), or control plasmid (pCMV) along with 200 ng of human RXRα expression vector (RXRα). Additions to each well were adjusted to contain constant amounts of DNA and of pCMV expression vector. […] The levels of gene expression were determined with Real-time quantitative PCR assays using an Applied Biosystems 7700 sequence detector.

Another test relates to ABCA1. Briefly: ABCA1 expression in transfected HEK 293 cells (real-time quantitative PCR). The class given is cell-based, human. The following applies: cotransfected with RXRα, FIG. 12. Here is the method: as §1, §2

Method for LXRα-42 mRNA: Each amplification mixture (50 μL) contained 50 ng of cDNA, 400 nM forward primer (SEQ ID NO:11), 400 nM reverse primer (SEQ ID NO:12), 200 nM dual-labeled fluorogenic probe (SEQ ID NO:13) (Applied Biosystems), 5.5 mM MgCl2, and 1.25 units Gold Taq (Applied Biosystems). The primers amplify a portion of the LXRα sequences that is about 80 nucleotides in length. The PCR thermocycling parameters were 95° C. for 10 minutes, and 40 cycles at 95° C. for 15 seconds, and 60° C. for 1 minute. Together with the samples and no-template controls, a serially diluted cDNA standard was analyzed in parallel. All samples were analyzed for human glyceraldehyde-3-phosphate dehydrogenase (GAPDH) expression in parallel in the same run using probe and primers from predeveloped assays for GAPDH (Applied Biosystems). All of the target gene expression was normalized to the expression of GAPDH. Quantitative analysis was performed using the threshold procedure, following the manufacturer's protocol (Perkin-Elmer), and relative amounts were calculated from the standard curve.
Experiments were performed to determine whether agonists of wild type LXRα could also regulate the expression of LXRα variants. In these experiments, THP-1 cells were obtained from the American Type Culture Collection (ATCC) and cultured in RPMI medium containing 10% fetal bovine serum (FBS). For gene expression analysis in differentiated THP-1 cells, the THP1 cells were incubated in RPMI medium supplemented with 10% lipoprotein-deficient serum (LPDS) (Intracel Corp, Rockville, Md.) and treated with 150 nM phorbol ester for 3 days followed by treatment with LXR, RXR, or Peroxisome Proliferator-activated Receptor γ (PPARγ) agonist compounds, specifically with vehicle only (control), 10 μM T0901317, 10 μM GW 3965, 10 μM Ciglitazone, or 1 μM 9RA. The primers and TaqMan probe for the real-time RT-PCR was described as in Example 4.
Method for LXRα-64 mRNA: Experiments were performed to determine whether agonists of wild type LXRα could also regulate the expression of LXRα variants. In these experiments, THP-1 cells were obtained from the American Type Culture Collection (ATCC) and cultured in RPMI medium containing 10% fetal bovine serum (FBS). For gene expression analysis in differentiated THP-1 cells, the THP1 cells were incubated in RPMI medium supplemented with 10% lipoprotein-deficient serum (LPDS) (Intracel Corp, Rockville, Md.) and treated with 150 nM phorbol ester for 3 days followed by treatment with LXR, RXR, or Peroxisome Proliferator-activated Receptor γ (PPARγ) agonist compounds, specifically with vehicle only (control), 10 μM T0901317, 10 μM GW 3965, 10 μM Ciglitazone, or 1 μM 9RA.

In the case of `CC1=C(/C=C/C(C)=C\C=C\C(C)=C\C(=O)O)C(C)(C)CCC1` [9-cis retinoic acid], in the test with LXRα-64 mRNA, the “expression of LXRα-64 mRNA” value was “increased”. Moreover, the “expression of LXRα-42 mRNA” value in the test on LXRα-42 mRNA is reported as “increased”.

As for `O=C(O)Cc1cccc(OCCCN(Cc2cccc(C(F)(F)F)c2Cl)CC(c2ccccc2)c2ccccc2)c1` [GW3965, 3-(3-(2-chloro-3-trifluoromethylbenzyl-2,2-diphenylethylamino)propoxy)phenylacetic acid], the “expression of LXRα-64 mRNA” value in the test on LXRα-64 mRNA is recorded as “increased”. Besides, in the test with LXRα-42 mRNA, the “expression of LXRα-42 mRNA” value is listed as “increased”.

Consider `O=S(=O)(c1ccccc1)N(CC(F)(F)F)c1ccc(C(O)(C(F)(F)F)C(F)(F)F)cc1` [T0901317, N-(2,2,2,-trifluoro-ethyl)-n-[4-(2,2,2,-trifluoro-1-hydroxy-1-trifluoromethyl-ethyl)-phenyl]-benzenesulfonamide], for which the “expression of LXRα-64 mRNA” value in the test with LXRα-64 mRNA is recorded as “increased”. Besides, in the test with LXRα-42 mRNA, the “expression of LXRα-42 mRNA” value was “increased”.

B1: LXRα-64: human LXRα splice variant with an extra 64 amino acids in its ligand binding domain (SEQ ID NO:4) (protein, listed as Homo sapiens)
chain: MSLWLGAPVPDIPPDSAVELWKPGAQDASSQAQGGSSCILREEARMPHSAGGTAGVGLEAAEPTALLTRAEPPSEPTEIRPQKRKKGPAPKMLGNELCSVCGDKASGFHYNVLSCEGCKGFFRRSVIKGAHYICHSGGHCPMDTYMRRKCQECRLRKCRQAGMREECVLSEEQIRLKKLKRQEEEQAHATSLPPRRSSPPQILPQLSPEQLGMIEKLVAAQQQCNRRSFSDRLRVTPWPMAPDPHSREARQQRFAHFTELAIVSVQEIVDFAKQLPGFLQLSREDQIALLKTSAIEVAGEGQGMKGEAEWDYLWEGPPDIELGEPNLLGSRDEENRPPWKRPCSKTSPPSPRLRFAACVQVMLLETSRRYNPGSESITFLKDFSYNREDFAKAGLQVEFINPIFEFSRAMNELQLNDAEFALLIAISIFSADRPNVQDQLQVERLQHTYVEALHAYVSIHHPHDRLMFPRMLMKLVSLRTLSSVHSEQVFALRLQDKKLPPLLSEIWDVHE
Regarding B1, the “LXR ligand-dependent activation of reporter gene” value in test [1] was “sharply decreased”. Further, in test [2], the “basal, LXR ligand-dependent, and LXR+RXR ligand-dependent induction of SREBP-c1 expression” value is recorded as “sharply decreased”. Also, the “LXR as well as LXR+RXR-ligand dependent induction of ABCA1 expression” value with ABCA1 (TO901317 and/or 9RA, 48 hours, compared to native LXRα and RXRα or empty vector with RXRα) is reported as “less”. Further, the “basal expression of ABCA1” value in the test with ABCA1 (no ligand) is “not affected”.

The record behind these values is US7341850B2, “Human LXRα variants” (Wyeth, priority 2003, dated 2008).
